According to article PMC10574185, “Encapsulation and Biological Activity of Hesperetin Derivatives with HP-β-CD” (Molecules, 2023):
In brackets after ≈: the same amount, converted by molar mass. Like-named read-outs stand apart in the source and are kept apart here.

Key:
[1] = ABTS^•+ radical cation decolorization assay; conditions: concentration 0.1 mg/mL, mean ± SD
Protocol: To evaluate the antioxidant ability of the tested systems, antioxidant analysis was performed. Antioxidants can scavenge hydroxyl radicals in two ways: by reacting directly with hydroxyl radicals (DPPH^•, ABTS^•+) or indirectly inhibiting the formation of hydroxyl radicals by chelating metal ions involved in the production of hydroxyl radicals. The antioxidant activity of the systems studied was investigated by using DPPH^• scavenging, ABTS^•+ scavenging ability, and Fe^2+-chelating ability. In this study, the antioxidant activity of pure hesperetin and its Schiff bases (HHSB, HIN, and HTSC) and HP-β-CD complexes were compared, and the positive control was Trolox.
Antioxidant activity using ABTS^•+ cation radical scavenging was determined according to a modified method. ABTS solution (2.5 mM) was mixed with 1.0 mM potassium persulfate solution and left at room temperature in the dark for 12-24 h. After this time, the absorbance of the finished ABTS^•+ solution was corrected with ethanol to 0.70 ± 0.02 at 745 nm. A total of 100 µL of the sample was reacted for 5 min with 2 mL of ABTS^•+ solution (A745 nm = 0.70 ± 0.02). The absorbance value of the reaction mixture was measured at 745 nm. […] Scavenging activity (%) = [1 − (Asample − Ablank)/Acontrol] × 100%(4) where Acontrol is the absorbance value of the control (ABTS^•+ solution with water), Ablank is the absorbance value of samples mixed with anhydrous ethanol, and Asample is the absorbance value of the added test sample to ABTS^•+ solution at 745 nm, respectively.

HaCaT cells = assay: MTT cytotoxicity assay on HaCaT keratinocytes; assay type: cell-based, human; conditions: for IC50: Homo sapiens, MTT
Protocol: HaCaT keratinocyte cells were exposed to chemical compounds at nine different concentrations (from 3.9 to 995.6 µg/mL) in four replicates of each concentration for 24 and 48 h.
All compounds were dissolved in sterile DMSO (Merck Life Science, Warsaw, Poland) and were sterile-filtered with 0.22 µm pore size sterile disposable syringe filters.
HaCaT cell line (the normal immortalised human keratinocytes) used in the study derived from the 35th passage (the original material created by Prof. Dr. Petra Boukamp and Dr. Norbert Fusenig) was purchased from Cell Line Service GmbH (Eppelheim, Germany). The cells were cultured and propagated as described previously.
The cytotoxicity was assessed with MTT assay according to methodology applied previously.
The following final concentrations (in four replicates per experiment) of the test compounds were tested (µg/mL): 3.9; 7.8; 15.6; 31.1; 62.2; 124.5; 248.9; 497.8, and 995.6. […] Three independent experiments were conducted. The vehicle was cells in the culture medium. The assay was conducted for 24 h and 48 h.

[2] = Phase solubility studies with HP-β-CD; assay type: physicochemical
Protocol: The purpose of this part of the study was to determine the solubility of compounds of hesperetin and its Schiff bases (HHSB, HIN, and HTSC) in aqueous solution at different pHs and temperatures, and the effect of their inclusion in modified HP-β-CD on the aqueous solubility of these compounds at different pH values.
The effect of the presence of HP-β-CD at different temperatures (25, 37, and 60 °C) was determined by developing phase solubility diagrams.
In accordance with the methodology described in Section 3.4, excess amounts of each tested substance were added to aqueous solution with increasing concentration of HP-β-CD up to 16 mM, respectively, in 2 mL of 100 mM sodium acetate buffer (pH 3.6), 100 mM sodium phosphate buffer (pH 6.5) or 100 mM sodium borate buffer (pH 8.5).
Phase solubility studies were conducted according to [64] with some modifications. Excess amounts of each tested substance were added to aqueous solution with increasing concentration of HP-β-CD up to 16 mM, in 2 mL of 100 mM sodium acetate buffer (pH 3.6), 100 mM sodium phosphate buffer (pH 6.5), or 100 mM sodium borate buffer (pH 8.5), respectively. The samples were maintained in an ultrasonic bath at various temperatures (25, 37, and 60 °C) for 60 min to reach equilibrium. The aqueous solutions were then filtered through 0.45 µm acetate cellulose (CA) membrane filter and diluted. The tested compound concentration on each clear filtrate was spectrophotometrically determined by measuring at their wavelength maximum.
The complexation constant (Kc) between studied molecules and HP-β-CD was determined by using Equation (1):(1) Kc=slope/S0 (1−slope) where S0 means the water solubility of the studied substance, and “slope” means the slope of the phase solubility diagram.
Complexation efficiency was calculated from the slope of the phase solubility diagram using Equation (2):(2) CE=S0×Kc=slope/1−slope
The CE was also applied to evaluate the molar ratio in solution of tested systems using Equation (3):(3) Compound:HP−β−CD=1:(1+1/CE)

SMILES: COc1ccc(C2C/C(=N\NC(=O)c3ccncc3)c3c(O)cc(O)cc3O2)cc1O (racemic) [HIN]
- ABTS^•+ antioxidant activity [1]: 31.56 ± 1.6%
- Non-cytotoxic concentration (IC0) (HaCaT cells; 24 h exposure): ≤ 7.8 µg/mL
- Non-cytotoxic concentration (IC0) (HaCaT cells; 48 h exposure): ≤ 15.6 µg/mL
- IC50 (HaCaT cells; 24 h exposure, read-out: IC50 After 24 h): 350 µg/mL (≈ 831 µM)
- IC50 (HaCaT cells; 48 h exposure, read-out: IC50 After 48 h): 59.7 µg/mL (≈ 142 µM)
- CE complexation efficiency ([2]; 25 °C, pH 3.6, with HP-β-CD): 0.7%
- Kc complexation constant ([2]; 25 °C, pH 3.6, with HP-β-CD): 102 ± 43 M⁻¹
- CE complexation efficiency ([2]; 25 °C, pH 6.5, with HP-β-CD): 0.2%
- Kc complexation constant ([2]; 25 °C, pH 6.5, with HP-β-CD): 39 ± 3.6 M⁻¹
- CE complexation efficiency ([2]; 25 °C, pH 8.5, with HP-β-CD): 1.3%
- Kc complexation constant ([2]; 25 °C, pH 8.5, with HP-β-CD): 143 ± 1.6 M⁻¹
- CE complexation efficiency ([2]; 37 °C, pH 3.6, with HP-β-CD): 1.3%
- Kc complexation constant ([2]; 37 °C, pH 3.6, with HP-β-CD): 145 ± 13 M⁻¹
- CE complexation efficiency ([2]; 37 °C, pH 6.5, with HP-β-CD): 0.04%
- Kc complexation constant ([2]; 37 °C, pH 6.5, with HP-β-CD): 25 ± 3.9 M⁻¹
- CE complexation efficiency ([2]; 37 °C, pH 8.5, with HP-β-CD): 0.04%
- Kc complexation constant ([2]; 37 °C, pH 8.5, with HP-β-CD): 28 ± 3.9 M⁻¹
- increase of solubility with HP-β-CD ([2]; 60 °C, pH 3.6): five-fold
- CE complexation efficiency ([2]; 60 °C, pH 3.6, with HP-β-CD): 0.3%
- Kc complexation constant ([2]; 60 °C, pH 3.6, with HP-β-CD): 62 ± 1.7 M⁻¹
- increase of solubility with HP-β-CD ([2]; 60 °C, pH 6.5): five-fold
- CE complexation efficiency ([2]; 60 °C, pH 6.5, with HP-β-CD): 0.3%
- Kc complexation constant ([2]; 60 °C, pH 6.5, with HP-β-CD): 61 ± 2.6 M⁻¹
- CE complexation efficiency ([2]; 60 °C, pH 8.5, with HP-β-CD): 3.7%
- Kc complexation constant ([2]; 60 °C, pH 8.5, with HP-β-CD): 132 ± 23 M⁻¹
- solubility at 60 min ([2]; aqueous buffer solutions, 25 °C, pH 3.6 to 8.5, read-out: solubility, increasing trend with increasing pH): 17 to 90 µM (≈ 7.16 to 37.9 µg/mL)
- solubility at 60 min ([2]; aqueous buffer, thermodynamic from solid, 25 °C, pH 3.6 sodium acetate buffer, without cyclodextrin, read-out: solubility without HP-β-CD (value in brackets) (converted)): 29 µM (≈ 12.2 µg/mL)
- solubility at 60 min ([2]; aqueous buffer, thermodynamic from solid, 25 °C, pH 6.5 sodium phosphate buffer, without cyclodextrin, read-out: solubility without HP-β-CD (value in brackets) (converted)): 17 µM (≈ 7.16 µg/mL)
- solubility at 60 min ([2]; aqueous buffer, thermodynamic from solid, 25 °C, pH 8.5 sodium borate buffer, without cyclodextrin, read-out: solubility without HP-β-CD (value in brackets) (converted)): 20 µM (≈ 8.43 µg/mL)
- solubility at 60 min ([2]; aqueous buffer, thermodynamic from solid, 37 °C, pH 3.6 sodium acetate buffer, without cyclodextrin, read-out: solubility without HP-β-CD (value in brackets) (converted)): 20 µM (≈ 8.43 µg/mL)
- solubility at 60 min ([2]; aqueous buffer, thermodynamic from solid, 37 °C, pH 6.5 sodium phosphate buffer, without cyclodextrin, read-out: solubility without HP-β-CD (value in brackets) (converted)): 1 µM (≈ 0.421 µg/mL)
- solubility at 60 min ([2]; aqueous buffer, thermodynamic from solid, 37 °C, pH 8.5 sodium borate buffer, without cyclodextrin, read-out: solubility without HP-β-CD (value in brackets) (converted)): 1 µM (≈ 0.421 µg/mL)
- solubility at 60 min ([2]; aqueous buffer, thermodynamic from solid, 60 °C, pH 3.6 sodium acetate buffer, without cyclodextrin, read-out: solubility without HP-β-CD (value in brackets) (converted)): 8 µM (≈ 3.37 µg/mL)
- solubility at 60 min ([2]; aqueous buffer, thermodynamic from solid, 60 °C, pH 6.5 sodium phosphate buffer, without cyclodextrin, read-out: solubility without HP-β-CD (value in brackets) (converted)): 8 µM (≈ 3.37 µg/mL)
- solubility at 60 min ([2]; aqueous buffer, thermodynamic from solid, 60 °C, pH 8.5 sodium borate buffer, without cyclodextrin, read-out: solubility without HP-β-CD (value in brackets) (converted)): 143 µM (≈ 60.3 µg/mL)
- solubility at 60 min ([2]; thermodynamic from solid, 25 °C, pH 3.6 sodium acetate buffer, with HP-β-CD, read-out: S0 (solubility with HP-β-CD)): 68 ± 40 µM (≈ 28.7 µg/mL)
- solubility at 60 min ([2]; thermodynamic from solid, 25 °C, pH 6.5 sodium phosphate buffer, with HP-β-CD, read-out: S0 (solubility with HP-β-CD)): 52 ± 24 µM (≈ 21.9 µg/mL)
- solubility at 60 min ([2]; thermodynamic from solid, 25 °C, pH 8.5 sodium borate buffer, with HP-β-CD, read-out: S0 (solubility with HP-β-CD)): 90 ± 50 µM (≈ 37.9 µg/mL)
- solubility at 60 min ([2]; thermodynamic from solid, 37 °C, pH 3.6 sodium acetate buffer, with HP-β-CD, read-out: S0 (solubility with HP-β-CD)): 90 ± 50 µM (≈ 37.9 µg/mL)
- solubility at 60 min ([2]; thermodynamic from solid, 37 °C, pH 6.5 sodium phosphate buffer, with HP-β-CD, read-out: S0 (solubility with HP-β-CD)): 15 ± 9 µM (≈ 6.32 µg/mL)
- solubility at 60 min ([2]; thermodynamic from solid, 37 °C, pH 8.5 sodium borate buffer, with HP-β-CD, read-out: S0 (solubility with HP-β-CD)): 14 ± 10 µM (≈ 5.9 µg/mL)
- solubility at 60 min ([2]; thermodynamic from solid, 60 °C, pH 3.6 sodium acetate buffer, with HP-β-CD, read-out: S0 (solubility with HP-β-CD)): 41 ± 20 µM (≈ 17.3 µg/mL)
- solubility at 60 min ([2]; thermodynamic from solid, 60 °C, pH 6.5 sodium phosphate buffer, with HP-β-CD, read-out: S0 (solubility with HP-β-CD)): 41 ± 20 µM (≈ 17.3 µg/mL)
- solubility at 60 min ([2]; thermodynamic from solid, 60 °C, pH 8.5 sodium borate buffer, with HP-β-CD, read-out: S0 (solubility with HP-β-CD)): 283 ± 27 µM (≈ 119 µg/mL)
